pIC50: −log10 of the molar value.
molecular target: ADAMTS4 (Homo sapiens (Human), UniProt O75173); experiment: Selectivity assay for ADAMTS-7 modulators: ADAMTS4 (FRET substrate); type: biochemical; conditions: ADAMTS4 (R&D 4307-AD) 50 nM, substrate Dabcyl-EEVKAKVQPY-Glu(Edans)-NH2 1 μM, 120 min, 32° C.
Procedure, shortened: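 Activity read as rising fluorescence after a FRET substrate is cleaved by human ADAMTS4, with reactions started by substrate addition to wells holding compound or DMSO. Percent inhibition plotted against concentration gave IC50.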

Chain of ADAMTS4 (O75173 213-685): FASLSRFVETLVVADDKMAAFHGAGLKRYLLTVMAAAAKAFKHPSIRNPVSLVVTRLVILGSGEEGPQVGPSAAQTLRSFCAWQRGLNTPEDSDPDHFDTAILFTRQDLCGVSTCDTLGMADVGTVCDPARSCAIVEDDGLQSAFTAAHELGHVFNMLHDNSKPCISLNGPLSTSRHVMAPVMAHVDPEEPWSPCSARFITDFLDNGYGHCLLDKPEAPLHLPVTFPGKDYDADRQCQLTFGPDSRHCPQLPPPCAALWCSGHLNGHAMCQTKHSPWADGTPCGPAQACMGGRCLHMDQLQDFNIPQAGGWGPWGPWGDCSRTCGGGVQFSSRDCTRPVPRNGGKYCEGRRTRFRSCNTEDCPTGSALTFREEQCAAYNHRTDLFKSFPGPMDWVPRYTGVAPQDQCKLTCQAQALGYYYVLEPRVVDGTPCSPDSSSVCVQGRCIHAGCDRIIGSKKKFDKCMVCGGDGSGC

Structure (SMILES)	pIC50
Cc1ncsc1C1(CNC(=O)c2ccccc2-c2ccc(C(F)(F)F)cc2)NC(=O)NC1=O (stereo not drawn) [Example 27, Ent-N-{[4-(4-Methyl-1,3-Thiazol-5-Yl)-2,5-Dioxoimidazolidin-4-Yl]Methyl}-4′-(Trifluoromethyl)[Biphenyl]-2-Carboxamide]	5.04
O=C1NC(=O)C(CNC(=O)c2ccccc2-c2ccc(C(F)(F)F)cc2)(C2(Cl)CC2)N1 (stereo not drawn) [Example 280, Ent-N-{[4-(1-Chlorocyclopropyl)-2,5-Dioxoimidazolidin-4-Yl]Methyl}-4′-(Trifluoromethyl)[Biphenyl]-2-Carboxamide]	5.15
O=C1NC(=O)C(CNC(=O)c2ccc(F)cc2-c2ccc(C(F)(F)F)cc2)(C23CC(F)(C2)C3)N1 (single isomer, unassigned; ent-5) [Example 294, Ent-5-Fluoro-N-{[4-(3-Fluorobicyclo[1.1.1]Pentan-1-Yl)-2,5-Dioxoimidazolidin-4-Yl]Methyl}-4′-(Trifluoromethyl)[Biphenyl]-2-Carboxamide]	4.43
O=C1NC(=O)[C@](CNC(=O)c2ccc(OC(F)(F)F)cc2-c2ccc(C(F)(F)F)cc2)(C2CC2)N1 [Example 92, N-{[(4R)-4-Cyclopropyl-2,5-Dioxoimidazolidin-4-Yl]Methyl}-5-(Trifluoromethoxy)-4′-(Trifluoromethyl)[1,1′-Biphenyl]-2-Carboxamide]	4.72
Cc1ccc(-c2ncccc2C(=O)NC[C@@]2(C3CC3)NC(=O)NC2=O)cc1 [Example 132, N-{[(4R)-4-Cyclopropyl-2,5-Dioxoimidazolidin-4-Yl]Methyl}-2-(4-Methylphenyl)Nicotinamide]	4.44
O=C1NC(=O)C(CNC(=O)c2ccc(F)cc2-c2ccc(C(F)(F)F)cc2)(C2(F)CC2)N1 (single isomer, unassigned; ent-5) [Example 253, Ent-5-Fluoro-N-{[4-(1-Fluorocyclopropyl)-2,5-Dioxoimidazolidin-4-Yl]Methyl}-4′-(Trifluoromethyl)[Biphenyl]-2-Carboxamide]	4.96
O=C1NC(=O)C(CNC(=O)c2ccc(F)c(F)c2-c2ccc(C(F)(F)F)cc2)(c2cscn2)N1 (stereo not drawn) [Example 278, Ent-N-{[2,5-Dioxo-4-(1,3-Thiazol-4-Yl)Imidazolidin-4-Yl]Methyl}-5,6-Difluoro-4′-(Trifluoromethyl)[Biphenyl]-2-Carboxamide]	5.07
Cc1scnc1C1(CNC(=O)c2cc(F)ccc2-c2ccc(C(F)(F)F)cc2)NC(=O)NC1=O (single isomer, unassigned; ent-4) [Example 166, Ent-4-Fluoro-N-{[4-(5-Methyl-1,3-Thiazol-4-Yl)-2,5-Dioxoimidazolidin-4-Yl]Methyl}-4′-(Trifluoromethyl)[Biphenyl]-2-Carboxamide]	5.49
CCC(C)C1(CNC(=O)c2ccccc2-c2ccc(C(F)(F)F)nc2)NC(=O)NC1=O (stereo not shown) [Example 51, Diamix-N-[(4-Sec-Butyl-2,5-Dioxoimidazolidin-4-Yl)Methyl]-2-[6-(Trifluoromethyl)Pyridin-3-Yl]Benzamide]	4.60
COc1ccc(C(=O)NC[C@@]2(C3CC3)NC(=O)NC2=O)c(-c2ccc(C3CC3)cc2)c1 [Example 103, 4′-Cyclopropyl-N-{[(4R)-4-Cyclopropyl-2,5-Dioxoimidazolidin-4-Yl]Methyl}-5-Methoxy[Biphenyl]-2-Carboxamide]	5.15
CCCC1(CNC(=O)c2ccccc2-c2ccc(C(F)(F)F)nc2)NC(=O)NC1=O (racemic) [Example 57, Rac-N-[(2,5-Dioxo-4-Propylimidazolidin-4-Yl)Methyl]-2-[6-(Trifluoromethyl)Pyridin-3-Yl]Benzamide]	< 4.30
Cc1nsnc1C1(CNC(=O)c2ccccc2-c2ccc(C(F)(F)F)cc2)NC(=O)NC1=O (racemic) [Example 62, Rac-N-{[4-(4-Methyl-1,2,5-Thiadiazol-3-Yl)-2,5-Dioxoimidazolidin-4-Yl]Methyl}-4′-(Trifluoromethyl)[Biphenyl]-2-Carboxamide]	4.59
CC(F)(F)c1ccc(-c2ccccc2C(=O)NC[C@@]2(C3CC3)NC(=O)NC2=O)cc1 [Example 125, N-{[(4R)-4-Cyclopropyl-2,5-Dioxoimidazolidin-4-Yl]Methyl}-4′-(1,1-Difluoroethyl)[Biphenyl]-2-Carboxamide]	5.06
O=C1NC(=O)C(CNC(=O)c2ccccc2-c2ccc(C(F)(F)F)cc2)(c2ncccc2C(F)(F)F)N1 (stereo not drawn) [Example 244, Ent-N-({2,5-Dioxo-4-[3-(Trifluoromethyl)Pyridin-2-Yl]Imidazolidin-4-Yl}Methyl)-4′-(Trifluoromethyl)[Biphenyl]-2-Carboxamide]	5.00
Cc1cnn(C)c1C1(CNC(=O)c2ccccc2-c2ccc(C(F)(F)F)nc2)NC(=O)NC1=O (racemic) [Example 52, Rac-N-{[4-(1,4-Dimethyl-1H-Pyrazol-5-Yl)-2,5-Dioxoimidazolidin-4-Yl]Methyl}-2-[6-(Trifluoromethyl)Pyridin-3-Yl]Benzamide]	4.72
O=C1NC(=O)C(CNC(=O)c2ccccc2-c2ccc(C(F)(F)F)nc2)(c2ccccc2)N1 (racemic) [Example 50, Rac-N-[(2,5-Dioxo-4-Phenylimidazolidin-4-Yl)Methyl]-2-[6-(Trifluoromethyl)Pyridin-3-Yl]Benzamide]	4.37

Structure (SMILES)	pIC50
O=C1NC(=O)[C@](CNC(=O)c2ccccc2-c2ccc(OC(F)F)cc2)(C2CC2)N1 [Example 127, N-{[(4R)-4-Cyclopropyl-2,5-Dioxoimidazolidin-4-Yl]Methyl}-4′-(Difluoromethoxy)[Biphenyl]-2-Carboxamide]	4.89
Cc1ccc(-c2ccccc2C(=O)NC[C@@]2(C3CC3)NC(=O)NC2=O)cc1Cl [Example 225, 3′-Chloro-N-{[(4R)-4-Cyclopropyl-2,5-Dioxoimidazolidin-4-Yl]Methyl}-4′-Methyl[1,1′-Biphenyl]-2-Carboxamide]	4.68
O=C1NC(=O)[C@](CNC(=O)c2c(Cl)cccc2-c2ccc(Cl)cc2)(C2CC2)N1 [Example 231, 3,4′-Dichloro-N-{[(4R)-4-Cyclopropyl-2,5-Dioxoimidazoidin-4-Yl]Methyl}[1,1′-Biphenyl]-2-Carboxamide]	5.28
O=C1NC(=O)[C@](CNC(=O)c2ccccc2-c2ccc(C(F)(F)F)cn2)(C2CC2)N1 [Example 84, N-{[(4R)-4-Cyclopropyl-2,5-Dioxoimidazolidin-4-Yl]Methyl}-2-[5-(Trifluoromethyl)Pyridin-2-Yl]Benzamide]	4.30
Cc1nocc1C1(CNC(=O)c2ccccc2-c2ccc(C(F)(F)F)nc2)NC(=O)NC1=O (racemic) [Example 41, Rac-N-{[4-(3-Methyl-1,2-Oxazol-4-Yl)-2,5-Dioxoimidazolidin-4-Yl]Methyl}-2-[6-(Trifluoromethyl)Pyridin-3-Yl]Benzamide]	4.52
Cc1ccc(C(=O)NCC2(C3CCC3)NC(=O)NC2=O)c(-c2ccc(C(F)(F)F)cc2)c1 (stereo not drawn) [Example 238, Ent-N-[(4-Cyclobutyl-2,5-Dioxoimidazolidin-4-Yl)Methyl]-5-Methyl-4′-(Trifluoromethyl)[Biphenyl]-2-Carboxamide]	5.70
Cc1cnoc1C1(CNC(=O)c2ccccc2-c2ccc(C(F)(F)F)cc2)NC(=O)NC1=O (stereo not drawn) [Example 88, Ent-N-{[4-(4-Methyl-1,2-Oxazol-5-Yl)-2,5-Dioxoimidazolidin-4-Yl]Methyl}-4′-(Trifluoromethyl)[Biphenyl]-2-Carboxamide]	5.04
Cc1cccc(C(=O)NCC2(c3nccn3C)NC(=O)NC2=O)c1-c1ccc(C(F)(F)F)cc1 (single isomer, unassigned; ent-6) [Example 133, Ent-6-Methyl-N-{[4-(1-Methyl-1H-Imidazol-2-Yl)-2,5-Dioxoimidazolidin-4-Yl]Methyl}-4′-(Trifluoromethyl)[1,1′-Biphenyl]-2-Carboxamide]	5.80
CC(C)C1(CNC(=O)c2ccccc2-c2ccc(C(F)(F)F)nc2)NC(=O)NC1=O (stereo not drawn) [Example 211, Ent-N-[(4-Isopropyl-2,5-Dioxoimidazolidin-4-Yl)Methyl]-2-[6-(Trifluoromethyl)Pyridin-3-Yl]Benzamide]	4.55
CCn1nccc1C1(CNC(=O)c2ccccc2-c2ccc(C(F)(F)F)cc2)NC(=O)NC1=O (racemic) [Example 4, Rac-N-{[4-(1-Ethyl-1H-Pyrazol-5-Yl)-2,5-Dioxoimidazolidin-4-Yl]Methyl}-4′-(Trifluoromethyl)[Biphenyl]-2-Carboxamide]	4.72
Cc1ccc(C(=O)NCC2(C(C)C)NC(=O)NC2=O)c(-c2ccc(C(F)(F)F)cc2)c1 (racemic) [Example 202, Rac-N-[(4-Isopropyl-2,5-Dioxoimidazolidin-4-Yl)Methyl]-5-Methyl-4′-(Trifluoromethyl)[Biphenyl]-2-Carboxamide]	4.42
O=C1NC(=O)C(CNC(=O)c2ccccc2-c2ccc(C(F)(F)F)cc2)(C2(F)CC2)N1 (racemic) [Example 254, Rac-N-{[4-(1-Fluorocyclopropyl)-2,5-Dioxoimidazolidin-4-Yl]Methyl}-4′-(Trifluoromethyl)[Biphenyl]-2-Carboxamide]	4.59
O=C1NC(=O)[C@](CNC(=O)c2ccc(Cl)cc2-c2ccc(C(F)(F)F)nc2)(C2CC2)N1 [Example 75, 4-Chloro-N-{[(4R)-4-Cyclopropyl-2,5-Dioxoimidazolidin-4-Yl]Methyl}-2-[6-(Trifluoromethyl)Pyridin-3-Yl]Benzamide]	5.00
Cc1nsnc1C1(CNC(=O)c2ccccc2-c2ccc(C(F)(F)F)nc2)NC(=O)NC1=O (racemic) [Example 53, Rac-N-{[4-(4-Methyl-1,2,5-Thiadiazol-3-Yl)-2,5-Dioxoimidazolidin-4-Yl]Methyl}-2-[6-(Trifluoromethyl)Pyridin-3-Yl]Benzamide]	4.39
Cn1ccnc1C1(CNC(=O)c2ccc(Cl)cc2-c2ccc(Cl)cc2)NC(=O)NC1=O (single isomer, unassigned; ent-4) [Example 162, Ent-4′,5-Dichloro-N-{[4-(1-Methyl-1H-Imidazol-2-Yl)-2,5-Dioxoimidazolidin-4-Yl]Methyl}[Biphenyl]-2-Carboxamide]	6.33

Reference: patent US12398120B2, “Substituted hydantoinamides as ADAMTS7 antagonists” (BAYER AKTIENGESELLSCHAFT, priority 2019, dated 2025)
